{
  "source": "BindingDB's records for doi:10.1002/cbic.201200206",
  "about": "(Frederick National Laboratory For Cancer Research, 2012)",
  "molecular_target": "Serine/threonine-protein kinase PLK1 (Homo sapiens, UniProt P53350)",
  "sequence (P53350 whole entry)": "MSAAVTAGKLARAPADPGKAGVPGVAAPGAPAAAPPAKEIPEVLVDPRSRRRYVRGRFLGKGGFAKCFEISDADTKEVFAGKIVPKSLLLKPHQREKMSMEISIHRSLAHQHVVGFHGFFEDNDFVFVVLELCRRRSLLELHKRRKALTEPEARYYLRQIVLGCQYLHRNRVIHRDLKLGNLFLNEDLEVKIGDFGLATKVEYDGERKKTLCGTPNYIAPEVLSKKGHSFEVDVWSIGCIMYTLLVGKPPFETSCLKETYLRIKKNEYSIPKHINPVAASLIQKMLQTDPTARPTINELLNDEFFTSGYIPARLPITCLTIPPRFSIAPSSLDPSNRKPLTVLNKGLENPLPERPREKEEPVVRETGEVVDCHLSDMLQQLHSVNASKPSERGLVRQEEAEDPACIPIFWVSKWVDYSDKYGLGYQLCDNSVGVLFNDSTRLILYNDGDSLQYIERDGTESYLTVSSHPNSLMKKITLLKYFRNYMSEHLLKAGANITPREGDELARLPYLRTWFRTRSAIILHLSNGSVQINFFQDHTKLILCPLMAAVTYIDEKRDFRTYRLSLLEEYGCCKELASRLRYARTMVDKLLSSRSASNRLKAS",
  "assay": "Binding Assay",
  "source_text": "[…] PDB fluorescence polarization competition binding assay using Plk.",
  "data": [
    {"molecule": "CC(=O)N(CCCCc1ccccc1)CC(=O)N[C@H](CC(C)C)C(=O)N[C@H](Cc1cnc[nH]1)C(=O)N[C@H](CO)C(=O)N[C@@H](C(N)=O)[C@@H](C)CP(=O)(O)O", "note": "[Peptide-peptoid hybrid, 13]", "values": [
      {"measurement": "IC50", "value": 71, "unit": "nM"}
    ]}
  ]
}
